# Assay results published in patent US20230272485A1, “REPLICATION STRESS PATHWAY AGENT COMPOSITIONS AND METHODS FOR TREATING CANCER” (Boundless Bio, Inc., priority 2022, published 2023).
# “Also recorded” adds a separate entry of the source.
# Experiments:
# [1] = test system: Glioblastoma cell line (GBM39); assay: GBM39 cells treated with erlotinib, FISH for MYC amplification; type: cell-based; settings: erlotinib 1 uM, 4 weeks, vs control cells
# Experimental: Glioblastoma cell line (GBM39) was assessed for ecDNA in untreated samples and cells treated with the EGFR inhibitor erlotinib (1 uM). Cells were treated for 4 weeks and then assessed by FISH for amplification of MYC ecDNA. […] Cells treated with the erlotinib developed brightly staining MYC amplification on ecDNA. Amplification of MYC on ecDNA and on HSR was quantified from the FISH images in control and treated cells.
# gastric cancer CDX model = assay: gastric cancer CDX model, 7-day multi-dosing experiment; type: in vivo, mice
# Experimental: The ecDTx agent was further tested in the gastric cancer CDX model in a 7-day multi-dosing experiment. Mice were treated with vehicle only (PO; QDx 7 days), with infigratinib alone (15 mg/kg PO;QD x 7 days), the ecDTx CHK1 inhibitor (20 mg/kg SC;Q2D x 4 doses) or with a combination of infigratinib and the ecDTx CHK1 inhibitor (same dosing as with individual agents).
# Tumor volume at day 6 is shown in the box and whisker graph in FIG. 4B. […] Copy number for MYC and FGFR2 was evaluated in the tumors from the treated mice. […] This increase was abrogated in the presence of the ecDTx agent. MYC and FGFR2 expression was also evaluated in the tumors of the treated mice (FIG. 4D).
# [2] = test system: gastric cancer CDX SNU16 mouse model; assay: gastric cancer CDX SNU16 mouse model, tumor growth over 50 days and copy number in tumors; type: in vivo, mice
# Experimental: To assess the effect of an ecDTx agent on gastric cancer and ecDNA development, a gastric cancer CDX SNU16 mouse model was treated with vehicle only, with infigratinib alone (15 mg/kg PO;QD), the ecDTx CHK1 inhibitor (20 mg/kg SQ;Q2D) or with a combination of infigratinib (15 mg/kg PO;QD) and the ecDTx CHK1 inhibitor (20 mg/kg SQ;Q2D). Tumor growth in the animals was monitored over 50 days. […] The effect of the combination was further assessed by evaluating copy number for MYC and FGFR2 in the tumors from the treated mice. […] FGFR2 amplification was abrogated in the presence of the ecDTx agent alone or when used in combination with infigratinib. The presence of the FGRF2 and MYC amplification on ecDNA was validated by FISH (FIG. 3C).
# [3] = test system: gastric cancer cell line SNU16; assay: SNU16 cells treated with infigratinib over about 80 days; relative copy number by metaphase DAPI/FISH; type: cell-based
# Experimental: A gastric cancer cell line SNU16 was assessed for the presence of ecDNA using metaphase DAPI/FISH using probes to detect MYC, FGFR2 and EGFR. […] SNU16 cells were then treated with the FGFR inhibitor infigratinib over the course of about 80 days. ecDNA was assessed by metaphase DAPI/FISH and relative copy number for MYC, FGFR2 and EGFR was tracked at day 0 and 5 additional time points.
# [4] = test system: colorectal cancer line COLO320 HSR; assay: COLO320 HSR cells treated with paclitaxel, ecDNA by metaphase FISH and PCR gene panel
# [5] = test system: lung cancer cell line (H2170); assay: H2170 cells treated with paclitaxel, ABCB1 transporter amplified ecDNA (FISH, qPCR); type: cell-based
# Experimental: The lung cancer cell line (H2170) was assessed for the presence of oncogene-amplified ecDNA. […] The cell line was treated with paclitaxel and the presence and level of ecDNA was assessed for ABCB1 transporter amplified ecDNA. […] Gene copy number for the ABCB1 transporter was assessed by qPCR.
# [6] = tumors from treated mice, 50-day study
smiles,measurement,setting,value
C#Cc1cccc(Nc2ncnc3cc(OCCOC)c(OCCOC)cc23)c1 [erlotinib],MYC amplification on HSR,[1],did not show any significant difference
same,MYC amplification on ecDNA,[1],dramatic increase; also recorded: significant increase
CCN1CCN(c2ccc(Nc3cc(N(C)C(=O)Nc4c(Cl)c(OC)cc(OC)c4Cl)ncn3)cc2)CC1 [infigratinib],FGFR2 expression in the tumors,gastric cancer CDX model,markedly increased
same,MYC expression in the tumors,gastric cancer CDX model,similar
same,copy number of FGFR2 in the tumors,gastric cancer CDX model,dramatically higher than the other groups
same,copy number of MYC in the tumors,gastric cancer CDX model,relatively similar
same,tumor growth,"[2]; compared to vehicle, over 50 days, infigratinib 15 mg/kg PO QD, ecDTx CHK1 inhibitor 20 mg/kg SQ Q2D",decreased tumor growth
same,trend at the later time points (resistance),"[2]; later time points of 50 days, infigratinib 15 mg/kg PO QD",suggested resistance was beginning to develop
same,copy number of FGFR2 in the tumors,[2]; [6],dramatically higher than the other groups
same,copy number of MYC in the tumors,[2]; [6],relatively similar
same,copy number of FGFR2,[3]; after about 10 days of treatment,reduced dramatically
same,copy number of EGFR,[3]; treatment over about 80 days,rapidly increased
same,copy number of MYC,[3]; treatment over about 80 days,rapidly increased
CC(=O)O[C@H]1C(=O)[C@@]2(C)[C@H]([C@H](OC(=O)c3ccccc3)[C@]3(O)C[C@H](OC(=O)[C@H](O)[C@@H](NC(=O)c4ccccc4)c4ccccc4)C(C)=C1C3(C)C)[C@]1(OC(C)=O)CO[C@@H]1C[C@@H]2O [paclitaxel],amplification of various genes,"[4]; PCR with a panel of genes, paclitaxel-treated cells",highest amount of amplification was seen with ABCB1
same,copy number of ecDNA harboring the ABCB1 drug efflux pump,"[4]; paclitaxel resistant cells, metaphase FISH",high copy number
same,copy number of the ABCB1 transporter amplified ecDNA,"[5]; FISH, vs untreated controls",marked increase
same,gene copy number for the ABCB1 transporter,"[5]; qPCR, vs untreated control",dramatically higher; also recorded: significant increase
